Assay results: patent US8772268B2, “Bisphosphonamidate prodrugs and uses thereof” (The Johns Hopkins University, priority 2010, dated 2014)

Legend:
Assay type in all cases: cell-based
[1] = system: 786-0; assay: NCI-60 DTP Human Tumor Cell Line Screen; conditions: 786-0, Renal Cancer, 48 h
[2] = system: UACC-257; assay: NCI-60 DTP Human Tumor Cell Line Screen; conditions: UACC-257, Melanoma, 48 h
[3] = system: HCT-15; assay: NCI-60 DTP Human Tumor Cell Line Screen; conditions: HCT-15, Colon Cancer, 48 h
[4] = system: NCI-H226; assay: NCI-60 DTP Human Tumor Cell Line Screen; conditions: NCI-H226, Non-Small Cell Lung Cancer, 48 h
[5] = system: CCRF-CEM; assay: NCI-60 DTP Human Tumor Cell Line Screen; conditions: Leukemia, 48 h
[6] = system: T-47D; assay: NCI-60 DTP Human Tumor Cell Line Screen; conditions: Breast Cancer, 48 h
[7] = system: caspases 3/7; assay: Caspase Glo 3/7 assay; conditions: higher drug concentrations, by 48 hours
Method: Caspase Glo 3/7 (Promega) assay was used to determine caspases 3/7 activation following treatment of cells with clodronate prodrug. Briefly, cells were treated with clodronate prodrug for 24, 48, or 72 h. Caspase glo 3/7 (Promega) reagent ([…]) was added to each well at 24, 48 or 72 h. The cells were then incubated at room temperature for 1 h, and the luminescence of each well was determined using a luminometer.

[8] = system: TK-10; assay: NCI-60 DTP Human Tumor Cell Line Screen; conditions: TK-10, Renal Cancer, 48 h
[9] = system: MDA-MB-435; assay: NCI-60 DTP Human Tumor Cell Line Screen; conditions: MDA-MB-435, Melanoma, 48 h
[10] = system: A549 NSCLC cells; assay: Effect of drug treatment time (MTS, drug removed); conditions: A549, 24 or 2 h exposure, viability measured after 48 h
Method: Cell proliferation was determined using the CellTiter 96 Aqueous One Solution Cell Proliferation Assay MTS assay. A549 NSCLC cells were plated at 1.5×10^3 cells per well in flat bottom 96 well plates in 99 μL of media and allowed to adhere overnight. The drugs were serially diluted in 100% DMSO. For each drug treatment group, 1 μL of a 100× stock solution was added to each well for a final DMSO concentration of 1%. Cells were treated for 2, 24, or 48 under normoxic or hypoxic (1-3% oxygen) conditions. Following 2 or 24 h, media containing drug was removed, the cells were washed 1× with fresh media, and 100 μL fresh media was added to each well. Cells were then allowed to grow for an additional 46 or 24 h in drug free media. After 48 h, cells were incubated with MTS dye (20 μL well^−1) for 40 min to 2 h. Absorbance at 490 nm was determined using a SpectraMax M2 (Molecular Devices) plate reader. The percent cell proliferation was calculated by converting the experimental absorbance to percentage of control, which was then plotted vs. drug concentration. The IC50 values were determined using a non-linear dose-response analysis in GraphPad Prism version 4.0.
A549 cells were treated with prodrug 14 for 24 or 2 h. Prodrug was removed and cell viability measured after 48 h using a standard MTS assay. Longer exposure to […] results in lower […].

[11] = system: COLO 205; assay: NCI-60 DTP Human Tumor Cell Line Screen; conditions: COLO 205, Colon Cancer, 48 h
[12] = system: NCI-H23; assay: NCI-60 DTP Human Tumor Cell Line Screen; conditions: NCI-H23, Non-Small Cell Lung Cancer, 48 h
[13] = system: MDA-MB-468; assay: NCI-60 DTP Human Tumor Cell Line Screen; conditions: MDA-MB-468, Breast Cancer, 48 h
[14] = system: HL-60(TB); assay: NCI-60 DTP Human Tumor Cell Line Screen; conditions: Leukemia, 48 h
[15] = system: K-562; assay: NCI-60 DTP Human Tumor Cell Line Screen; conditions: K-562, Leukemia, 48 h

SMILES: CN(CCCCCl)P(=O)(OCc1ccc([N+](=O)[O-])cc1)C(Cl)(Cl)P(=O)(OCc1ccc([N+](=O)[O-])cc1)N(C)CCCCCl (centres unmarked) [compound 14]
- Log10GI50 [1]: −5.28
- Log10LC50 [1]: >−4.00
- Log10TGI [1]: >−4.00
- Log10GI50 [2]: −5.56
- Log10LC50 [2]: >−4.00
- Log10TGI [2]: −5.10
- Log10GI50 [3]: −5.41
- Log10LC50 [3]: >−4.00
- Log10TGI [3]: >−4.00
- Log10GI50 [4]: −5.52
- Log10LC50 [4]: >−4.00
- Log10TGI [4]: >−4.00
- Log10GI50 [5]: −5.50
- Log10LC50 [5]: >−4.00
- Log10TGI [5]: >−4.00
- Log10GI50 [6]: −5.27
- Log10LC50 [6]: >−4.00
- Log10TGI [6]: >−4.00
- caspases 3/7 activation [7]: Activation of caspases 3/7
- Log10GI50 [8]: −5.35
- Log10LC50 [8]: >−4.00
- Log10TGI [8]: >−4.00
- Log10GI50 [9]: −5.55
- Log10LC50 [9]: >−4.00
- Log10TGI [9]: −4.65
- growth inhibition over shorter drug treatment times [10]: more potent growth inhibition than zoledronate
- Log10GI50 [11]: −5.53
- Log10LC50 [11]: >−4.00
- Log10TGI [11]: −5.10
- Log10GI50 [12]: −5.58
- Log10LC50 [12]: >−4.00
- Log10TGI [12]: >−4.00
- Log10GI50 [13]: −5.58
- Log10LC50 [13]: >−4.00
- Log10TGI [13]: −5.07
- Log10GI50 [14]: −5.39
- Log10LC50 [14]: >−4.00
- Log10TGI [14]: >−4.00
- Log10GI50 [15]: −5.45
- Log10LC50 [15]: >−4.00
- Log10TGI [15]: >−4.00
